Some test systems named below: MALME-3M melanoma; NCI-H226 lung; MDA-MB-231 breast; SN12C renal; HS 578T breast; SNB-75 CNS; RPMI-8226 leukemia; RXF 393 renal; KM12 colon; UO-31 renal.
What all share (test): NCI anticancer screen, dose series, 48 h

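Grown in 96-well plates, cells were treated for 48 hours with each compound at five concentrations. Insufficient inhibition: endpoint recorded as highest concentration tested. GI50 is the concentration that inhibits growth by half. TGI: total growth inhibition.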 A value given as a limit tells only on which side of the number the result lay.

As for `C[C@]12C[C@H](CCCCCCNCCOC(=O)NCCCc3ccc(N(CCCl)CCCl)cc3)C3=C4CCC(=O)C=C4CCC3C1CC[C@@H]2O` (some centres not stated), the GI50 with MALME-3M melanoma was 2.29 µM; with NCI-H226 lung, 2.15 µM; in the experiment with MDA-MB-231 breast, 2.01 µM; with SN12C renal, 1.89 µM; with HS 578T breast it was 1.66 µM; in the experiment on SNB-75 CNS it was 1.46 µM. Further, the GI50 in the experiment with RPMI-8226 leukemia was 0.304 µM; in the experiment on RXF 393 renal, 0.294 µM; in the experiment with KM12 colon, 1.87 µM; in the experiment on UO-31 renal, 1.27 µM. The TGI was found to be 5.15 µM in the experiment on MALME-3M melanoma; 4.15 µM in the experiment with NCI-H226 lung; 3.44 µM with MDA-MB-231 breast; 3.39 µM with SN12C renal; 4.61 µM in the experiment with HS 578T breast; 2.91 µM in the experiment with SNB-75 CNS. For the same compound, the TGI is 1.06 µM with RPMI-8226 leukemia, 1.21 µM in the experiment on RXF 393 renal, over 21.6 µM in the experiment with KM12 colon and 2.98 µM in the experiment on UO-31 renal.
In the case of `Clc1nc(Cl)c2ncn(CC3(Cn4cnc5c(Cl)nc(Cl)nc54)COC3)c2n1`, the GI50 with MALME-3M melanoma was 0.187 µM; in the experiment on NCI-H226 lung it was 1.77 µM; in the experiment with MDA-MB-231 breast, 0.19 µM; in the experiment on SN12C renal, 0.26 µM; with HS 578T breast, 0.316 µM; in the experiment with SNB-75 CNS it was 0.201 µM. In addition, the GI50 was 1.86 µM in the experiment on RPMI-8226 leukemia, 0.196 µM with RXF 393 renal, 0.362 µM with KM12 colon and 0.623 µM in the experiment with UO-31 renal. Besides, the TGI in the experiment with MALME-3M melanoma came out at 0.433 µM; with NCI-H226 lung, 3.68 µM; with MDA-MB-231 breast it was 0.371 µM; in the experiment with SN12C renal it was 0.776 µM; in the experiment with HS 578T breast it was 0.868 µM; with SNB-75 CNS, 0.395 µM. For the same compound, the TGI was 59.1 µM in the experiment on RPMI-8226 leukemia, 0.405 µM with RXF 393 renal, 1.01 µM in the experiment with KM12 colon and 1.35 µM with UO-31 renal.
Consider `COc1cccc(N2CCN(CC(=O)N3CCN(c4nnc(-c5ccc(Cl)cc5)c(-c5ccc(Cl)cc5)n4)CC3)CC2)c1`, for which the GI50 was 20.6 µM with MALME-3M melanoma; 88.3 µM in the experiment with NCI-H226 lung; 34.2 µM with MDA-MB-231 breast; 23.1 µM in the experiment on SN12C renal; 22 µM in the experiment on HS 578T breast; 19 µM in the experiment on SNB-75 CNS. Besides, the GI50 with RPMI-8226 leukemia was 4.63 µM; with RXF 393 renal, 28.7 µM; in the experiment with KM12 colon, 14.3 µM; in the experiment with UO-31 renal it was 3.63 µM. For the same compound, the TGI in the experiment on MALME-3M melanoma is over 100 µM; in the experiment with NCI-H226 lung, over 100 µM; in the experiment with MDA-MB-231 breast it was over 100 µM; with SN12C renal it was over 100 µM; in the experiment on HS 578T breast, 85.7 µM; in the experiment on SNB-75 CNS, 52.9 µM. Also, the TGI in the experiment with RPMI-8226 leukemia, with RXF 393 renal, in the experiment with KM12 colon and in the experiment with UO-31 renal was over 100 µM in each case.
Consider `O.O.[NH-]C1(C(=O)O)CCCC1.[NH-]C1(C(=O)O)CCCC1.[Ni+2]`, for which the TGI in the experiment on MALME-3M melanoma, in the experiment with NCI-H226 lung, with MDA-MB-231 breast, in the experiment with SN12C renal, with HS 578T breast and in the experiment on SNB-75 CNS was over 100 µM throughout. Besides, the TGI in the experiment on RPMI-8226 leukemia, in the experiment on RXF 393 renal, with KM12 colon and in the experiment on UO-31 renal was over 100 µM throughout. For the same compound, the GI50 with MDA-MB-231 breast and in the experiment with HS 578T breast was over 100 µM throughout.
Take `COc1cc(C(O)CCBr)c(OC)cc1C` (configuration not stated): the TGI was over 100 µM in the experiment on MALME-3M melanoma; over 100 µM in the experiment on NCI-H226 lung; over 72.7 µM with MDA-MB-231 breast; over 100 µM in the experiment on SN12C renal; over 89.4 µM with HS 578T breast; over 100 µM in the experiment with SNB-75 CNS. The TGI in the experiment with RPMI-8226 leukemia was over 100 µM; in the experiment on RXF 393 renal it was over 100 µM; with KM12 colon, over 86.7 µM; in the experiment on UO-31 renal, over 100 µM.
Regarding `CN(/N=C/c1cccc2cccnc12)c1ccc([N+](=O)[O-])cc1[N+](=O)[O-]`, the TGI in the experiment with MALME-3M melanoma is 70.2 µM; in the experiment on NCI-H226 lung, 64.4 µM; with MDA-MB-231 breast, 56.8 µM; with SN12C renal it was over 100 µM; with HS 578T breast, 34.8 µM; with SNB-75 CNS it was 25.8 µM. Moreover, the TGI with RPMI-8226 leukemia was over 100 µM; with RXF 393 renal, 40.9 µM; in the experiment with KM12 colon it was over 100 µM; in the experiment on UO-31 renal it was 90.1 µM.
Regarding `COC(=O)C1CC23CCCN4CCC5(c6ccccc6N(C=O)C15CC2)C43` (configuration not stated), the TGI in the experiment with MALME-3M melanoma, with NCI-H226 lung, in the experiment with MDA-MB-231 breast, with SN12C renal, in the experiment with HS 578T breast and with SNB-75 CNS was over 100 µM each time. Also, the TGI in the experiment on RPMI-8226 leukemia, in the experiment on RXF 393 renal, with KM12 colon and in the experiment on UO-31 renal was over 100 µM each time.
For `O=C(O)CN(CC(=O)O)Cc1cc(C#Cc2ccc(C#Cc3ccccc3)cc2)cc(CN(CC(=O)O)CC(=O)O)n1`, the TGI in the experiment on MALME-3M melanoma was over 85.5 µM; with NCI-H226 lung it was 58.7 µM; in the experiment with MDA-MB-231 breast, 43 µM; in the experiment on SN12C renal, over 100 µM; in the experiment with HS 578T breast, over 100 µM; in the experiment on SNB-75 CNS, over 100 µM. Further, the TGI with RPMI-8226 leukemia was 48.8 µM; in the experiment on RXF 393 renal, over 62.7 µM; with KM12 colon it was over 92 µM; with UO-31 renal, over 79.7 µM.
`CCOC(=O)N1CCN(/[N+]([O-])=N/Oc2ccc([N+](=O)[O-])cc2[N+](=O)[O-])CC1`: the GI50 in the experiment on MALME-3M melanoma is 1.59 µM; in the experiment on NCI-H226 lung it was 3.77 µM; with MDA-MB-231 breast it was 1.99 µM; with SN12C renal, 1.45 µM; in the experiment with HS 578T breast, 5.84 µM; with SNB-75 CNS, 4.92 µM. Also, the GI50 is 0.34 µM in the experiment on RPMI-8226 leukemia, 1.95 µM in the experiment with RXF 393 renal, 1.78 µM in the experiment with KM12 colon and 10.6 µM in the experiment on UO-31 renal. The TGI is 4.05 µM in the experiment on MALME-3M melanoma; 16.7 µM in the experiment with NCI-H226 lung; 7.08 µM in the experiment with MDA-MB-231 breast; 6.92 µM with SN12C renal; 37.4 µM in the experiment on HS 578T breast; 18.8 µM in the experiment with SNB-75 CNS. Further, the TGI in the experiment with RPMI-8226 leukemia worked out at 12.9 µM; in the experiment with RXF 393 renal it was 5.9 µM; in the experiment on KM12 colon, 8.56 µM; in the experiment with UO-31 renal, 23.3 µM.
